How the values were obtained:
Assay in all cases: relative viability (nuclei count vs DMSO), 5 days (fraction); higher = more cells survive
[1] = system: 201T
Summary of the method: (§1)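 Cells from lung cancer lines were seeded into 1536-well plates and, one day later, dosed by pin tool. Treatments were either a single drug or a fixed dose of an anchor drug with five library-drug doses (not always all listed) in √10 steps. After 5 days, nuclei were stained in a one-step fixation (final 0.05% Triton X-100, 1% formaldehyde, 1 ug/ml Hoechst) and counted on 4× images, and relative viability is the treated-to-vehicle nuclei ratio, as the median of duplicate plates.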

[2] = system: EKVX
Summary of the method: as §1

[3] = system: HCC-44
Summary of the method: as §1

[4] = system: BEN
Summary of the method: as §1

[5] = system: LK-2
Summary of the method: as §1

[6] = system: NCI-H2023
Summary of the method: as §1

[7] = system: NCI-H358
Summary of the method: as §1

[8] = system: COR-L 105
Summary of the method: as §1

[9] = system: NCI-H1563
Summary of the method: as §1

[10] = system: SW 900
Summary of the method: as §1

[11] = system: HCC-15
Summary of the method: as §1

[12] = system: NCI-H520
Summary of the method: as §1

[13] = system: NCI-H838
Summary of the method: as §1

[14] = system: PC-3 [JPC-3]
Summary of the method: as §1

[15] = system: NCI-H322M
Summary of the method: as §1

[16] = system: NCI-H1651
Summary of the method: as §1

[17] = system: CAL-12T
Summary of the method: as §1

[18] = system: LU99A
Summary of the method: as §1

[19] = system: NCI-H522
Summary of the method: as §1

[20] = system: NCI-H460
Summary of the method: as §1

[21] = system: EMC-BAC-2
Summary of the method: as §1

In the case of `Cc1csc(=NC2CCCCC2)n1/N=C/c1ccc(O)c(O)c1O` [MIM1] + Nc1nc2[nH]cc(CCc3ccc(C(=O)N[C@@H](CCC(=O)O)C(=O)O)cc3)c2c(=O)[nH]1 [Pemetrexed] (partner 0.2 µM), the relative viability ([1]; first compound 0.2 µM) is reported as 0.372, the relative viability ([1]; first compound 0.6325 µM) is reported as 0.338 and the relative viability ([1]; first compound 2 µM) is reported as 0.38. The relative viability ([1]; first compound 6.325 µM) was 0.31, the relative viability ([1]; first compound 20 µM) was 0.318 and the relative viability ([2]; first compound 0.2 µM) was 0.374. The relative viability ([2]; first compound 0.6325 µM) was 0.392, the relative viability ([2]; first compound 2 µM) was 0.318 and the relative viability ([2]; first compound 6.325 µM) was 0.287. The relative viability ([2]; first compound 20 µM) was 0.29, the relative viability ([3]; first compound 0.2 µM) was 0.689 and the relative viability ([3]; first compound 0.6325 µM) was 0.566. The relative viability ([3]; first compound 2 µM) was 0.601, the relative viability ([3]; first compound 6.325 µM) was 0.468 and the relative viability ([3]; first compound 20 µM) was 0.401. It also gave a relative viability ([4]; first compound 0.2 µM) of 0.792, a relative viability ([4]; first compound 0.6325 µM) of 0.751 and a relative viability ([4]; first compound 2 µM) of 0.705. For the same molecule, the relative viability ([4]; first compound 6.325 µM) was 0.709, the relative viability ([4]; first compound 20 µM) was 0.34 and the relative viability ([5]; first compound 0.2 µM) was 0.276. It also gave a relative viability ([5]; first compound 0.6325 µM) of 0.298, a relative viability ([5]; first compound 2 µM) of 0.197 and a relative viability ([5]; first compound 6.325 µM) of 0.272. For the same molecule, the relative viability ([5]; first compound 20 µM) was 0.218, the relative viability ([6]; first compound 0.2 µM) was 0.235 and the relative viability ([6]; first compound 0.6325 µM) was 0.337. It also gave a relative viability ([6]; first compound 2 µM) of 0.219, a relative viability ([6]; first compound 6.325 µM) of 0.098 and a relative viability ([6]; first compound 20 µM) of 0.0763. For the same molecule, the relative viability ([7]; first compound 0.2 µM) was 0.181, the relative viability ([7]; first compound 0.6325 µM) was 0.17 and the relative viability ([7]; first compound 2 µM) was 0.182. For the same molecule, the relative viability ([7]; first compound 6.325 µM) was 0.152, the relative viability ([7]; first compound 20 µM) was 0.144 and the relative viability ([8]; first compound 0.2 µM) was 1.02. The relative viability ([8]; first compound 0.6325 µM) was 1.13, the relative viability ([8]; first compound 2 µM) was 0.882 and the relative viability ([8]; first compound 6.325 µM) was 0.933. For the same molecule, the relative viability ([8]; first compound 20 µM) was 1.04, the relative viability ([9]; first compound 0.2 µM) was 0.883 and the relative viability ([9]; first compound 0.6325 µM) was 0.905. The relative viability ([9]; first compound 2 µM) was 0.651, the relative viability ([9]; first compound 6.325 µM) was 0.786 and the relative viability ([9]; first compound 20 µM) was 0.481. The relative viability ([10]; first compound 0.2 µM) was 0.504, the relative viability ([10]; first compound 0.6325 µM) was 0.465 and the relative viability ([10]; first compound 2 µM) was 0.499. For the same molecule, the relative viability ([10]; first compound 6.325 µM) was 0.349, the relative viability ([10]; first compound 20 µM) was 0.178 and the relative viability ([11]; first compound 0.2 µM) was 0.217. It also gave a relative viability ([11]; first compound 0.6325 µM) of 0.225, a relative viability ([11]; first compound 2 µM) of 0.225 and a relative viability ([11]; first compound 6.325 µM) of 0.239. The relative viability ([11]; first compound 20 µM) was 0.162, the relative viability ([12]; first compound 0.2 µM) was 0.693 and the relative viability ([12]; first compound 0.6325 µM) was 0.722. The relative viability ([12]; first compound 2 µM) was 0.752, the relative viability ([12]; first compound 6.325 µM) was 0.547 and the relative viability ([12]; first compound 20 µM) was 0.306. It also gave a relative viability ([13]; first compound 0.2 µM) of 0.244, a relative viability ([13]; first compound 0.6325 µM) of 0.376 and a relative viability ([13]; first compound 2 µM) of 0.243. The relative viability ([13]; first compound 6.325 µM) was 0.269, the relative viability ([13]; first compound 20 µM) was 0.226 and the relative viability ([14]; first compound 0.2 µM) was 1.18. For the same molecule, the relative viability ([14]; first compound 0.6325 µM) was 1.04, the relative viability ([14]; first compound 2 µM) was 1.14 and the relative viability ([14]; first compound 6.325 µM) was 0.948. For the same molecule, the relative viability ([14]; first compound 20 µM) was 0.485, the relative viability ([15]; first compound 0.2 µM) was 0.614 and the relative viability ([15]; first compound 0.6325 µM) was 0.58. The relative viability ([15]; first compound 2 µM) was 0.558, the relative viability ([15]; first compound 6.325 µM) was 0.557 and the relative viability ([15]; first compound 20 µM) was 0.543. For the same molecule, the relative viability ([16]; first compound 0.2 µM) was 0.57, the relative viability ([16]; first compound 0.6325 µM) was 0.443 and the relative viability ([16]; first compound 2 µM) was 0.564. The relative viability ([16]; first compound 6.325 µM) was 0.476, the relative viability ([16]; first compound 20 µM) was 0.558 and the relative viability ([17]; first compound 0.2 µM) was 1.25. For the same molecule, the relative viability ([17]; first compound 0.6325 µM) was 1.07, the relative viability ([17]; first compound 2 µM) was 1.04 and the relative viability ([17]; first compound 6.325 µM) was 0.847. It also gave a relative viability ([17]; first compound 20 µM) of 0.925, a relative viability ([18]; first compound 0.2 µM) of 0.178 and a relative viability ([18]; first compound 0.6325 µM) of 0.193. It also gave a relative viability ([18]; first compound 2 µM) of 0.175, a relative viability ([18]; first compound 6.325 µM) of 0.17 and a relative viability ([18]; first compound 20 µM) of 0.16. It also gave a relative viability ([19]; first compound 0.2 µM) of 1.09, a relative viability ([19]; first compound 0.6325 µM) of 1.31 and a relative viability ([19]; first compound 2 µM) of 0.951. It also gave a relative viability ([19]; first compound 6.325 µM) of 1.01, a relative viability ([19]; first compound 20 µM) of 0.481 and a relative viability ([20]; first compound 0.2 µM) of 0.0717. It also gave a relative viability ([20]; first compound 0.6325 µM) of 0.0675, a relative viability ([20]; first compound 2 µM) of 0.0683 and a relative viability ([20]; first compound 6.325 µM) of 0.0681. It also gave a relative viability ([20]; first compound 20 µM) of 0.0657, a relative viability ([21]; first compound 0.2 µM) of 0.421 and a relative viability ([21]; first compound 0.6325 µM) of 0.436. For the same molecule, the relative viability ([21]; first compound 2 µM) was 0.432, the relative viability ([21]; first compound 6.325 µM) was 0.448 and the relative viability ([21]; first compound 20 µM) was 0.354.

From the supplement of paper PMC10307832
